The results in this text go back to patent publication US10125134B2 (Mirati Therapeutics, Inc., priority 2016, dated 2018).

The subject of assay [1] is NCI-H358 cells (express KRas G12C), Phospho-ERK. Put plainly: Cellular inhibition of KRas G12C: Phospho-ERK in NCI-H358 cells. The format is cell-based. Particulars: Homo sapiens, pERK(Thr202/Tyr204) normalized with GAPDH, NCI-H358 cells, 3 hours, read-out: IC50. The gist of the method:
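IC50 derived by 4-parameter fit of GAPDH-normalized pERK(Thr202/Tyr204) signal, as percent of DMSO control. Signal came from in-cell immunodetection with infrared secondaries after 3 h compound exposure of KRas G12C NCI-H358 cells at 0.5% DMSO.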

A further assay concerns the target KRas G12C (Homo sapiens, UniProt P01116, C118S/C51S/C80L/G12C). Put plainly: KRas G12C Modification Assay (LCMS detection of covalent adduct). The format is binding. The following applies: normalized percent of control; tested at 5 μM concentration for 3 hours. The essentials:
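Cys-light KRas G12C mutant protein incubated with compound in K-Ras assay buffer, reactions quenched at set time points with 25 mM acetic acid and analysed by intact-protein LC/MS on a C-3 column. Deconvoluted mass heights expressed as percent of control (POC) relative to compound-free protein.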

Like-named read-outs stand apart in the source and are kept apart here.

Consider `C=CC(=O)N1CCN(c2nc(OCCCN3CCOCC3)nc3c2CCN(c2c(C)c(O)cc4ccccc24)C3)CC1` [Example 173, 1-(4-(7-(3-hydroxy-2-methylnaphthalen-1-yl)-2-(3-morpholinopropoxy)-5,6,7,8-tetrahydropyrido[3,4-d]pyrimidin-4-yl)piperazin-1-yl)prop-2-en-1-one], for which the IC50 in assay [1] was above 1000 nM. In addition, the POC entry on KRas G12C is on record as “C (“C”>50% POC)”.
In the case of `C=CC(=O)N1CCN(c2nc(OC[C@H]3CCC(C)(C)N3)nc3c2CCN(c2cc(O)cc4ccccc24)C3)CC1` [Example 174, (R)-1-(4-(2-((5,5-dimethylpyrrolidin-2-yl)methoxy)-7-(3-hydroxynaphthalen-1-yl)-5,6,7,8-tetrahydropyrido[3,4-d]pyrimidin-4-yl)piperazin-1-yl)prop-2-en-1-one], the IC50 in assay [1] (NCI-H358, 3 h) is above 1000 nM. Besides, the POC entry on KRas G12C is on record as “C (“C”>50% POC)”.
With `C=CC(=O)N1CCN(c2nc(OC[C@@H]3CCCN3C)nc3c2CCN(c2c(C)c(O)cc4ccccc24)C3)CC1` [Example 175, (S)-1-(4-(7-(3-hydroxy-2-methylnaphthalen-1-yl)-2-((1-methylpyrrolidin-2-yl)methoxy)-5,6,7,8-tetrahydropyrido[3,4-d]pyrimidin-4-yl)piperazin-1-yl)prop-2-en-1-one], the IC50 in assay [1] was 0.1 to 1000 nM. In addition, the POC result on KRas G12C is “C (“C”>50% POC)”.
As for `C=CC(=O)N1CCN(c2nc(OCCN(C)C)nc3c2CCN(c2cc(O)cc4ccccc24)C3)C[C@@H]1CC#N` [Example 176, 2-[(2S)-4-[2-[2-(dimethylamino)ethoxy]-7-(3-hydroxy-1-naphthyl)-6,8-dihydro-5H-pyrido[3,4-d]pyrimidin-4-yl]-1-prop-2-enoyl-piperazin-2-yl]acetonitrile], the IC50 in assay [1] (NCI-H358, 3 h) fell in the range of 0.1 to 1000 nM. The POC entry at KRas G12C is recorded as “C (“C”>50% POC)”.
Take `C=CC(=O)N1CCN(c2nc(OC[C@@H]3CCN(C)C3)nc3c2CCN(c2cccc4ccccc24)C3)CC1CC#N` (stereo partly drawn) [Example 177, 2-[4-[2-[[(3R)-1-methylpyrrolidin-3-yl]methoxy]-7-(1-naphthyl)-6,8-dihydro-5H-pyrido[3,4-d]pyrimidin-4-yl]-1-prop-2-enoyl-piperazin-2-yl]acetonitrile]: the IC50 in assay [1] is 0.1 to 1000 nM. Besides, on KRas G12C, the POC result is listed as “C (“C”>50% POC)”.
Take `C=CC(=O)N1CCN(c2nc(OC[C@H]3CCCN3C)nc3c2CCN(c2cc(O)cc4ccccc24)C3)CC1CC#N` (stereo partly drawn) [Example 178, 2-[4-[7-(3-hydroxy-1-naphthyl)-2-[[(2R)-1-methylpyrrolidin-2-yl]methoxy]-6,8-dihydro-5H-pyrido[3,4-d]pyrimidin-4-yl]-1-prop-2-enoyl-piperazin-2-yl]acetonitrile]: the IC50 in assay [1] (NCI-H358, 3 h) was 0.1 to 1000 nM. Also, at KRas G12C, the POC entry was “C (“C”>50% POC)”.
`C=CC(=O)N1CCN(c2nc(OC[C@@H]3CCN(C)C3)nc3c2CCN(c2cc(O)cc4ccccc24)C3)CC1CC#N` (stereo partly drawn) [Example 179, 2-[4-[7-(3-hydroxy-1-naphthyl)-2-[[(3R)-1-methylpyrrolidin-3-yl]methoxy]-6,8-dihydro-5H-pyrido[3,4-d]pyrimidin-4-yl]-1-prop-2-enoyl-piperazin-2-yl]acetonitrile]: the half-maximal inhibitory concentration (IC50) in assay [1] (NCI-H358, 3 h) was in the range of 0.1 to 1000 nM. In addition, the POC result on KRas G12C is reported as “C (“C”>50% POC)”.
For `C=CC(=O)N1CCN(c2nc(OCCCN3CCOCC3)nc3c2CCN(c2c(C(F)(F)F)ccc4[nH]ncc24)C3)CC1` [Example 180, 1-[4-[2-(3-morpholinopropoxy)-7-[5-(trifluoromethyl)-1H-indazol-4-yl]-6,8-dihydro-5H-pyrido[3,4-d]pyrimidin-4-yl]piperazin-1-yl]prop-2-en-1-one], the IC50 in assay [1] is 0.1 to 1000 nM. Also, on KRas G12C, the POC entry is recorded as “C (“C”>50% POC)”.
For `C=CC(=O)N1CCN(c2nc(OCCCN3C[C@@H]4C[C@H]3CO4)nc3c2CCN(c2c(C)ccc4[nH]ncc24)C3)CC1` [Example 181, 1-(4-(2-(3-((1 S,4S)-2-oxa-5-azabicyclo[2.2.1]heptan-5-yl)propoxy)-7-(5-methyl-1H-indazol-4-yl)-5,6,7,8-tetrahydropyrido[3,4-d]pyrimidin-4-yl)piperazin-1-yl)prop-2-en-1-one] the same measures were above 1000 nM and “C (“C”>50% POC)”.
For `C=CC(=O)N1CCN(c2nc(OC[C@@H]3CCCN3C)nc3c2CCN(c2cc(O)cc4ccccc24)C3)CC1CC#N` (stereo partly drawn) [Example 182, 2-[4-[7-(3-hydroxy-1-naphthyl)-2-[[(2S)-1-methylpyrrolidin-2-yl]methoxy]-6,8-dihydro-5H-pyrido[3,4-d]pyrimidin-4-yl]-1-prop-2-enoyl-piperazin-2-yl]acetonitrile] the same measures were 0.1 to 1000 nM and “C (“C”>50% POC)”.
On to `C=CC(=O)N1CCN(c2nc(OC[C@H]3CCCN3C)nc3c2CCN(c2cccc4ccccc24)C3)CC1CC#N` (stereo partly drawn) [Example 183, 2-[4-[2-[[(2R)-1-methylpyrrolidin-2-yl]methoxy]-7-(1-naphthyl)-6,8-dihydro-5H-pyrido[3,4-d]pyrimidin-4-yl]-1-prop-2-enoyl-piperazin-2-yl]acetonitrile], for which, in assay [1], the IC50 fell in the range of 0.1 to 1000 nM. Also, the POC result on KRas G12C is recorded as “C (“C”>50% POC)”.
For `C=CC(=O)N1CCN(c2nc(OCCCO)nc3c2CCN(c2cc(O)cc4ccccc24)C3)CC1` [Example 184, 1-[4-[7-(3-hydroxy-1-naphthyl)-2-(3-hydroxypropoxy)-6,8-dihydro-5H-pyrido[3,4-d]pyrimidin-4-yl]piperazin-1-yl]prop-2-en-1-one], the IC50 in assay [1] (NCI-H358, 3 h) is above 1000 nM. The POC entry at KRas G12C is “C (“C”>50% POC)”.
For `C=CC(=O)N1CCN(c2nc(-c3cccc(CN4CCOCC4)c3)nc3c2CCN(c2cc(O)cc4ccccc24)C3)CC1` [Example 186], in assay [1], the IC50 is above 1000 nM. For the same molecule, at KRas G12C, the POC entry is on record as “B (“B”>25% POC−≤50% POC)”.
For `C=CC(=O)N1CCN(c2nc(OC[C@H]3CCN(C)C3)nc3c2CCN(c2cc(O)cc4ccccc24)C3)CC1` [Example 188, (S)-1-(4-(7-(3-hydroxynaphthalen-1-yl)-2-((1-methylpyrrolidin-3-yl)methoxy)-5,6,7,8-tetrahydropyrido[3,4-d]pyrimidin-4-yl)piperazin-1-yl)prop-2-en-1-one], the IC50 in assay [1] (NCI-H358, 3 h) fell in the range of 0.1 to 1000 nM. In addition, the POC entry on KRas G12C was “C (“C”>50% POC)”.
For `C=CC(=O)N1CCN(c2nc(OCC3CCN(Cc4ccccc4)C3)nc3c2CCN(c2cc(O)cc4ccccc24)C3)CC1` (stereo not drawn) [Example 189, 1-(4-(2-((1-benzylpyrrolidin-3-yl)methoxy)-7-(3-hydroxynaphthalen-1-yl)-5,6,7,8-tetrahydropyrido[3,4-d]pyrimidin-4-yl)piperazin-1-yl)prop-2-en-1-one] the same measures were above 1000 nM and “C (“C”>50% POC)”.
For `C=CC(=O)N1CCN(c2nc(OCC3CCN(C4CC4)C3)nc3c2CCN(c2cc(O)cc4ccccc24)C3)CC1` (stereo not drawn) [Example 190, 1-(4-(2-((1-cyclopropylpyrrolidin-3-yl)methoxy)-7-(3-hydroxynaphthalen-1-yl)-5,6,7,8-tetrahydropyrido[3,4-d]pyrimidin-4-yl)piperazin-1-yl)prop-2-en-1-one] the same measures were 0.1 to 1000 nM and “C (“C”>50% POC)”.
In the case of `C=CC(=O)N1[C@H](C)CN(c2nc(OCCCN3CCOCC3)nc3c2CCN(c2cc(O)cc4ccccc24)C3)C[C@@H]1C` [Example 191, 1-((2S,6R)-4-(7-(3-hydroxynaphthalen-1-yl)-2-(3-morpholinopropoxy)-5,6,7,8-tetrahydropyrido[3,4-d]pyrimidin-4-yl)-2,6-dimethylpiperazin-1-yl)prop-2-en-1-one], the IC50 in assay [1] was above 1000 nM. The POC result on KRas G12C is on record as “C (“C”>50% POC)”.
Turning to `C=CC(=O)N1CCN(c2nc(OC[C@@H]3CCCN(C)C3)nc3c2CCN(c2cc(O)cc4ccccc24)C3)CC1` [Example 192, (R)-1-(4-(7-(3-hydroxynaphthalen-1-yl)-2-((1-methylpiperidin-3-yl)methoxy)-5,6,7,8-tetrahydropyrido[3,4-d]pyrimidin-4-yl)piperazin-1-yl)prop-2-en-1-one], the IC50 in assay [1] (NCI-H358, 3 h) lay in the range of 0.1 to 1000 nM. For the same molecule, the POC entry on KRas G12C is reported as “C (“C”>50% POC)”.
On to `C=CC(=O)N1CCN(c2nc(OCC3CN(C)CCO3)nc3c2CCN(c2cc(O)cc4ccccc24)C3)CC1` (stereo not drawn) [Example 193, 1-(4-(7-(3-hydroxynaphthalen-1-yl)-2-((4-methylmorpholin-2-yl)methoxy)-5,6,7,8-tetrahydropyrido[3,4-d]pyrimidin-4-yl)piperazin-1-yl)prop-2-en-1-one], for which the IC50 in assay [1] (NCI-H358, 3 h) lay within 0.1 to 1000 nM. Further, the POC result at KRas G12C is on record as “C (“C”>50% POC)”.
Turning to `C=CC(=O)N1CCN(c2nc(OCC3COCCN3C)nc3c2CCN(c2cc(O)cc4ccccc24)C3)CC1` (stereo not drawn) [Example 194, 1-(4-(7-(3-hydroxynaphthalen-1-yl)-2-((4-methylmorpholin-3-yl)methoxy)-5,6,7,8-tetrahydropyrido[3,4-d]pyrimidin-4-yl)piperazin-1-yl)prop-2-en-1-one], the IC50 in assay [1] (NCI-H358, 3 h) is above 1000 nM. On KRas G12C, the POC result is given as “C (“C”>50% POC)”.
For the molecule `C=CC(=O)N1CCN(c2nc(OC[C@H]3CCCCN3C)nc3c2CCN(c2cc(O)cc4ccccc24)C3)CC1` [Example 195, (R)-1-(4-(7-(3-hydroxynaphthalen-1-yl)-2-((1-methylpiperidin-2-yl)methoxy)-5,6,7,8-tetrahydropyrido[3,4-d]pyrimidin-4-yl)piperazin-1-yl)prop-2-en-1-one], the IC50 in assay [1] (NCI-H358, 3 h) is above 1000 nM. For the same molecule, at KRas G12C, the POC result was “C (“C”>50% POC)”.
